Assay results from ChEMBL document CHEMBL5523722, “Design, Synthesis, and Activity Evaluation of Novel Benzazole Bifunctional Antifungal Inhibitors with an LDH Carrier” (J Med Chem, 2024).
Converted amounts (≈) assume the structure as drawn.

Key:
Candida albicans [1] = test: microbe, parasite or virus in culture; details: ATCC SC5314, 64 h
Description: Antifungal activity against Candida albicans ATCC SC5314 assessed as inhibition of fungal growth incubated for 64 hrs by liquid medium dilution method

Aspergillus fumigatus = test: microbe, parasite or virus in culture; details: KM8001, 64 h
Description: Antifungal activity against Aspergillus fumigatus KM8001 assessed as inhibition of fungal growth incubated for 64 hrs by liquid medium dilution method

Cryptococcus neoformans = test: microbe, parasite or virus in culture; details: ZKCC 2209, 64 h
Description: Antifungal activity against Cryptococcus neoformans ZKCC 2209 assessed as inhibition of fungal growth incubated for 64 hrs by liquid medium dilution method

Candida tropicalis = test: microbe, parasite or virus in culture; details: ATCC 1369, 64 h
Description: Antifungal activity against Candida tropicalis ATCC 1369 assessed as inhibition of fungal growth incubated for 64 hrs by liquid medium dilution method

Nakaseomyces glabratus = test: microbe, parasite or virus in culture; details: 64 h
Description: Antifungal activity against Candida glabrata assessed as inhibition of fungal growth incubated for 64 hrs by liquid medium dilution method

[2] = target: Lanosterol 14-alpha demethylase (Candida albicans (strain SC5314 / ATCC MYA-2876) (Yeast), UniProt P10613)
Description: Inhibition of candida albicans CYP51 14alpha demethylase activity incubated for 30 mins by HPLC analysis

Candida albicans [3] = test: microbe, parasite or virus in culture; details: 17#, 64 h
Description: Antifungal activity against fluconazole-resistant Candida albicans 17# assessed as inhibition of fungal growth incubated for 64 hrs by liquid medium dilution method

Candida albicans [4] = test: microbe, parasite or virus in culture; details: Candida albicans, 632, 64 h
Description: Antifungal activity against fluconazole-resistant Candida albicans 632 assessed as inhibition of fungal growth incubated for 64 hrs by liquid medium dilution method

Candida albicans [5] = test: microbe, parasite or virus in culture; details: Candida albicans, 901, 64 h
Description: Antifungal activity against fluconazole-resistant Candida albicans 901 assessed as inhibition of fungal growth incubated for 64 hrs by liquid medium dilution method

Candida albicans [6] = test: microbe, parasite or virus in culture; details: Candida albicans, 904, 64 h
Description: Antifungal activity against fluconazole-resistant Candida albicans 904 assessed as inhibition of fungal growth incubated for 64 hrs by liquid medium dilution method

Candida albicans [7] = test: microbe, parasite or virus in culture; details: CaR, 64 h
Description: Antifungal activity against fluconazole-resistant Candida albicans CaR assessed as inhibition of fungal growth incubated for 64 hrs by liquid medium dilution method

Chain of Lanosterol 14-alpha demethylase (P10613 whole entry): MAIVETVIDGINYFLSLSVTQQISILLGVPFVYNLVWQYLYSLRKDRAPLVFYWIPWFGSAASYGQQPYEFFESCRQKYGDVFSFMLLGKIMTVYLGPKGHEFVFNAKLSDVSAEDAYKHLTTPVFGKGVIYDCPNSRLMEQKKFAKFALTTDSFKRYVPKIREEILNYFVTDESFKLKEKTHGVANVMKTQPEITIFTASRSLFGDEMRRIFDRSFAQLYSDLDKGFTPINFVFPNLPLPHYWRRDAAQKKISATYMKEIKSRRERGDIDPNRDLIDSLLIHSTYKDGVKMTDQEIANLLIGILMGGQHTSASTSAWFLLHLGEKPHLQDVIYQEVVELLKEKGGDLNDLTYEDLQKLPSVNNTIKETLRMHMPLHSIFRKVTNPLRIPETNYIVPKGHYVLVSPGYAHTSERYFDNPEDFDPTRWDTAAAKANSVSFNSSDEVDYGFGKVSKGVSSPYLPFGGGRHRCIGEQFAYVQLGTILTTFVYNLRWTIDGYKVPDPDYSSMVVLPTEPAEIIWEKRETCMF

Cc1c(CN2CCCC(C(=O)NCC(Cc3ccccc3)Cn3ccnc3)C2)cccc1-c1ccccc1 (centres undefined)
MIC50 (Candida albicans [1]): 0.5 µg/mL (≈ 0.987 µM) | MIC50 (Aspergillus fumigatus): 4 µg/mL (≈ 7.89 µM) | MIC50 (Cryptococcus neoformans): 2 µg/mL (≈ 3.95 µM) | MIC50 (Candida tropicalis): 1 µg/mL (≈ 1.97 µM) | MIC50 (Nakaseomyces glabratus): 2 µg/mL (≈ 3.95 µM)

Cc1c(CN2CCC(CNCC(O)(Cn3ccnc3)c3ccc(Cl)cc3)CC2)cccc1-c1ccccc1 (centres undefined)
MIC50 (Candida albicans [1]): 1 µg/mL (≈ 1.89 µM) | MIC50 (Aspergillus fumigatus): ≥ 8 µg/mL | MIC50 (Cryptococcus neoformans): 2 µg/mL (≈ 3.78 µM) | MIC50 (Candida tropicalis): 1 µg/mL (≈ 1.89 µM) | MIC50 (Nakaseomyces glabratus): 0.5 µg/mL (≈ 0.945 µM)

Cc1c(CN2CCCC(C(=O)NCC(O)(Cn3cncn3)c3ccc(Cl)cc3Cl)C2)cccc1-c1ccccc1 (centres undefined)
MIC50 (Candida albicans [1]): 0.5 µg/mL (≈ 0.864 µM) | MIC50 (Aspergillus fumigatus): ≥ 8 µg/mL | MIC50 (Cryptococcus neoformans): 4 µg/mL (≈ 6.91 µM) | MIC50 (Candida tropicalis): 2 µg/mL (≈ 3.46 µM) | MIC50 (Nakaseomyces glabratus): 0.5 µg/mL (≈ 0.864 µM)

Cc1c(CN2CCC(CNCC(O)(Cn3cncn3)c3ccc(Cl)cc3Cl)CC2)cccc1-c1ccccc1 (centres undefined)
MIC50 (Candida albicans [1]): 2 µg/mL (≈ 3.54 µM) | MIC50 (Aspergillus fumigatus): ≥ 8 µg/mL | MIC50 (Cryptococcus neoformans): 2 µg/mL (≈ 3.54 µM) | MIC50 (Candida tropicalis): 2 µg/mL (≈ 3.54 µM) | MIC50 (Nakaseomyces glabratus): 1 µg/mL (≈ 1.77 µM)

Cc1c(CN2CCC(CNCC(O)(Cn3cncn3)c3ccc(Cl)cc3)CC2)cccc1-c1ccccc1 (centres undefined)
MIC50 (Candida albicans [1]): 0.5 µg/mL (≈ 0.943 µM) | MIC50 (Aspergillus fumigatus): ≥ 8 µg/mL | MIC50 (Cryptococcus neoformans): 4 µg/mL (≈ 7.55 µM) | MIC50 (Candida tropicalis): 0.5 µg/mL (≈ 0.943 µM) | MIC50 (Nakaseomyces glabratus): 1 µg/mL (≈ 1.89 µM)

Cc1c(CN2CCCC(C(=O)NCC(Cc3ccccc3)Cn3cncn3)C2)cccc1-c1ccccc1 (centres undefined)
MIC50 (Candida albicans [1]): 0.25 µg/mL (≈ 0.492 µM) | MIC50 (Aspergillus fumigatus): ≥ 8 µg/mL | MIC50 (Cryptococcus neoformans): ≥ 8 µg/mL | MIC50 (Candida tropicalis): 0.5 µg/mL (≈ 0.985 µM) | MIC50 (Nakaseomyces glabratus): 0.5 µg/mL (≈ 0.985 µM)

Cc1c(CN2CCCC(C(=O)NCC(O)(Cn3ccnc3)c3ccc(Cl)cc3)C2)cccc1-c1ccccc1 (centres undefined)
MIC50 (Candida albicans [1]): 1 µg/mL (≈ 1.84 µM) | MIC50 (Aspergillus fumigatus): ≥ 8 µg/mL | MIC50 (Cryptococcus neoformans): 4 µg/mL (≈ 7.36 µM) | MIC50 (Candida tropicalis): 2 µg/mL (≈ 3.68 µM) | MIC50 (Nakaseomyces glabratus): 1 µg/mL (≈ 1.84 µM)

Cc1c(CN2CCCC(C(=O)NCC(O)(Cn3cncn3)c3ccc(Cl)cc3)C2)cccc1-c1ccccc1 (centres undefined)
MIC50 (Candida albicans [1]): 0.25 µg/mL (≈ 0.459 µM) | IC50 [2]: 256 nM | MIC50 (Candida albicans [3]): 2 µg/mL (≈ 3.68 µM) | MIC50 (Candida albicans [4]): 4 µg/mL (≈ 7.35 µM) | MIC50 (Aspergillus fumigatus): 4 µg/mL (≈ 7.35 µM) | MIC50 (Cryptococcus neoformans): 1 µg/mL (≈ 1.84 µM) | MIC50 (Candida albicans [5]): ≥ 8 µg/mL | MIC50 (Candida albicans [6]): 4 µg/mL (≈ 7.35 µM) | MIC50 (Candida tropicalis): 0.25 µg/mL (≈ 0.459 µM) | MIC50 (Nakaseomyces glabratus): 0.5 µg/mL (≈ 0.919 µM) | MIC50 (Candida albicans [7]): ≥ 8 µg/mL

Cc1c(CN2CCC(CNCC(O)(Cn3ccnc3)c3ccc(Cl)cc3Cl)CC2)cccc1-c1ccccc1 (centres undefined)
MIC50 (Candida albicans [1]): 1 µg/mL (≈ 1.77 µM) | MIC50 (Aspergillus fumigatus): 4 µg/mL (≈ 7.1 µM) | MIC50 (Cryptococcus neoformans): 4 µg/mL (≈ 7.1 µM) | MIC50 (Candida tropicalis): 2 µg/mL (≈ 3.55 µM) | MIC50 (Nakaseomyces glabratus): 0.5 µg/mL (≈ 0.887 µM)

Cc1c(CN2CCC(NCC(O)(Cn3ccnc3)c3ccc(Cl)cc3Cl)CC2)cccc1-c1ccccc1 (centres undefined)
MIC50 (Candida albicans [1]): 0.125 µg/mL (≈ 0.227 µM) | IC50 [2]: 157 nM | MIC50 (Candida albicans [3]): 2 µg/mL (≈ 3.64 µM) | MIC50 (Candida albicans [4]): 2 µg/mL (≈ 3.64 µM) | MIC50 (Aspergillus fumigatus): 4 µg/mL (≈ 7.28 µM) | MIC50 (Cryptococcus neoformans): 1 µg/mL (≈ 1.82 µM) | MIC50 (Candida albicans [5]): 4 µg/mL (≈ 7.28 µM) | MIC50 (Candida albicans [6]): 2 µg/mL (≈ 3.64 µM) | MIC50 (Candida tropicalis): 0.5 µg/mL (≈ 0.91 µM) | MIC50 (Nakaseomyces glabratus): 0.5 µg/mL (≈ 0.91 µM) | MIC50 (Candida albicans [7]): 4 µg/mL (≈ 7.28 µM)

Cc1c(CN2CCC(NCC(O)(Cn3ccnc3)c3ccc(Cl)cc3)CC2)cccc1-c1ccccc1 (centres undefined)
MIC50 (Candida albicans [1]): 0.25 µg/mL (≈ 0.485 µM) | MIC50 (Aspergillus fumigatus): 4 µg/mL (≈ 7.77 µM) | MIC50 (Cryptococcus neoformans): 2 µg/mL (≈ 3.88 µM) | MIC50 (Candida tropicalis): 0.5 µg/mL (≈ 0.971 µM) | MIC50 (Nakaseomyces glabratus): 1 µg/mL (≈ 1.94 µM)

O=C(NCC(Cc1ccccc1)Cn1ccnc1)C1CCCN(Cc2ccc(-c3ccccc3)cc2)C1 (centres undefined)
MIC50 (Candida albicans [1]): 1 µg/mL (≈ 2.03 µM) | MIC50 (Aspergillus fumigatus): ≥ 8 µg/mL | MIC50 (Cryptococcus neoformans): 4 µg/mL (≈ 8.12 µM) | MIC50 (Candida tropicalis): 2 µg/mL (≈ 4.06 µM) | MIC50 (Nakaseomyces glabratus): 0.5 µg/mL (≈ 1.01 µM)

O=C(NCC(Cc1ccccc1)Cn1cncn1)C1CCCN(Cc2ccc(-c3ccccc3)cc2)C1 (centres undefined)
MIC50 (Candida albicans [1]): 0.5 µg/mL (≈ 1.01 µM) | MIC50 (Aspergillus fumigatus): 4 µg/mL (≈ 8.1 µM) | MIC50 (Cryptococcus neoformans): 2 µg/mL (≈ 4.05 µM) | MIC50 (Candida tropicalis): 1 µg/mL (≈ 2.03 µM) | MIC50 (Nakaseomyces glabratus): 2 µg/mL (≈ 4.05 µM)

Cc1c(CN2CCC(NCC(O)(Cn3cncn3)c3ccc(Cl)cc3)CC2)cccc1-c1ccccc1 (centres undefined)
MIC50 (Candida albicans [1]): 0.25 µg/mL (≈ 0.484 µM) | IC50 [2]: 113 nM | MIC50 (Candida albicans [3]): 1 µg/mL (≈ 1.94 µM) | MIC50 (Candida albicans [4]): 1 µg/mL (≈ 1.94 µM) | MIC50 (Aspergillus fumigatus): 2 µg/mL (≈ 3.88 µM) | MIC50 (Cryptococcus neoformans): 0.5 µg/mL (≈ 0.969 µM) | MIC50 (Candida albicans [5]): 2 µg/mL (≈ 3.88 µM) | MIC50 (Candida albicans [6]): 2 µg/mL (≈ 3.88 µM) | MIC50 (Candida tropicalis): 0.25 µg/mL (≈ 0.484 µM) | MIC50 (Nakaseomyces glabratus): 0.25 µg/mL (≈ 0.484 µM) | MIC50 (Candida albicans [7]): 2 µg/mL (≈ 3.88 µM)

OC(Cn1cncn1)(Cn1cncn1)c1ccc(F)cc1F [FLUCONAZOLE]
MIC50 (Candida albicans [1]): 0.5 µg/mL (≈ 1.63 µM) | IC50 [2]: 98 nM | MIC50 (Candida albicans [3]): ≥ 8 µg/mL | MIC50 (Candida albicans [4]): ≥ 8 µg/mL | MIC50 (Aspergillus fumigatus): ≥ 8 µg/mL | MIC50 (Cryptococcus neoformans): 2 µg/mL (≈ 6.53 µM) | MIC50 (Candida albicans [5]): ≥ 8 µg/mL | MIC50 (Candida albicans [6]): ≥ 8 µg/mL | MIC50 (Candida tropicalis): 0.5 µg/mL (≈ 1.63 µM) | MIC50 (Nakaseomyces glabratus): 0.5 µg/mL (≈ 1.63 µM) | MIC50 (Candida albicans [7]): ≥ 8 µg/mL

CC(=O)N1CCN(c2ccc(OCC3COC(Cn4ccnc4)(c4ccc(Cl)cc4Cl)O3)cc2)CC1 (centres undefined) [KETOCONAZOLE]
MIC50 (Candida albicans [1]): 0.25 µg/mL (≈ 0.47 µM) | MIC50 (Candida albicans [3]): 2 µg/mL (≈ 3.76 µM) | MIC50 (Candida albicans [4]): ≥ 8 µg/mL | MIC50 (Aspergillus fumigatus): 4 µg/mL (≈ 7.53 µM) | MIC50 (Cryptococcus neoformans): 1 µg/mL (≈ 1.88 µM) | MIC50 (Candida albicans [5]): 4 µg/mL (≈ 7.53 µM) | MIC50 (Candida albicans [6]): ≥ 8 µg/mL | MIC50 (Candida tropicalis): 0.25 µg/mL (≈ 0.47 µM) | MIC50 (Nakaseomyces glabratus): 0.5 µg/mL (≈ 0.941 µM) | MIC50 (Candida albicans [7]): 4 µg/mL (≈ 7.53 µM)

Cc1c(CN2CCC(NCC(O)(Cn3cncn3)c3ccc(Cl)cc3Cl)CC2)cccc1-c1ccccc1 (centres undefined)
MIC50 (Candida albicans [1]): 0.5 µg/mL (≈ 0.908 µM) | MIC50 (Aspergillus fumigatus): 4 µg/mL (≈ 7.27 µM) | MIC50 (Cryptococcus neoformans): 2 µg/mL (≈ 3.63 µM) | MIC50 (Candida tropicalis): 2 µg/mL (≈ 3.63 µM) | MIC50 (Nakaseomyces glabratus): 1 µg/mL (≈ 1.82 µM)

Cc1c(CN2CCCC(C(=O)NCC(O)(Cn3ccnc3)c3ccc(Cl)cc3Cl)C2)cccc1-c1ccccc1 (centres undefined)
MIC50 (Candida albicans [1]): 0.5 µg/mL (≈ 0.866 µM) | MIC50 (Aspergillus fumigatus): ≥ 8 µg/mL | MIC50 (Cryptococcus neoformans): ≥ 8 µg/mL | MIC50 (Candida tropicalis): 0.5 µg/mL (≈ 0.866 µM) | MIC50 (Nakaseomyces glabratus): 1 µg/mL (≈ 1.73 µM)
